In brackets after ≈: the same amount, converted by molar mass. Starred links: 1 amine or outer side, 2 acyl side, 3 side chain; linkers in the order of their positions; H or OH if unused. Positions of bridges follow the written chain, without caps; N, C: chain ends. Non-standard residues stand in square brackets, D forms with d. Residues, ends and D or L forms follow the SMILES beside them. *: point of attachment. Orn(4R-OH,5R-OCH2CH2NMe3+) = C[N+](C)(C)CCO[C@@H](N[*:3])[C@H](O)C[C@H](N[*:1])C(=O)[*:2]; hTyr(3S-OH,4S-OH,3'-OSO3H) = N[C@H](C(=O)O)[C@H](O)[C@@H](O)c1ccc(O)c(OS(=O)(=O)O)c1; pTerphenylCO(4''-OnC5H11) = CCCCCOc1ccc(-c2ccc(-c3ccc(C(=O)*)cc3)cc2)cc1; Orn(4R-OH,5R-OH) = O=C([C@H](C[C@@H](O)[C@@H](O)N[*:3])N[*:1])[*:2]; hTyr(3S-OH,4S-OH) = N[C@H](C(=O)O)[C@H](O)[C@@H](O)c1ccc(O)cc1; Pro(3S-OH,4S-Me) = C[C@H]1CN[C@H](C(=O)O)[C@H]1O; X1 = CCCCCOc1ccc(-c2cc(-c3ccc(C(=O)*)cc3)no2)cc1; Gln(3R-OH) = NC(=O)C[C@@H](O)[C@H](N)C(=O)O; Hyp = O=C(O)[C@@H]1C[C@@H](O)CN1
Assays:
C. parapsilosis CP02 = assay: Broth microdilution MIC (CLSI), Examples 3 and 4; details: Lodderomyces parapsilosis, CP02, 24 h, read-out: Broth MIC
Description: Antifungal susceptibility testing. Candida strains were cultured aerobically at 35° C. on SDA plates or in RPMI 1640 broth (pH 7.0). […] MIC assays were performed in triplicate.

[1] = test system: C. albicans ATCC 90028 and DPL22; assay: MIC of strains used in mouse study (Table 3); details: Candida albicans
[2] = test system: Candida albicans (Strain R303); assay: Dose-fractionation study in neutropenic ICR mice, kidney fungal burden (Table 24); details: 2 mg/kg as a single dose IP; 168 hours
Murine protein binding = type: in vitro ADME; details: mouse, plasma
[3] = test system: Aspergillus fumigatus (ATCC 13073); assay: Neutropenic mouse model of disseminated aspergillosis, survival; type: in vivo; details: one dose; Compound 1 2 mg/kg IV or IP, AMB 2 mg/kg IP; 10 days; P<0.05
C. krusei = assay: Antifungal susceptibility testing (CLSI M27-S4), WT and echinocandin-resistant isolates; details: 24 hr
Description: (§1) Antifungal susceptibility testing. Antifungal susceptibility testing was performed in triplicate for a collection of 95 Candida strains (20 C. albicans, 20 C. glabrata, 2 C. dubliniensis, 15 C. krusei, 19 C. parapsilosis, and 19 C. tropicalis) that included 30 isolates showing an echinocandin resistance (ER) phenotype (caspofungin-resistant) in accordance with the guidelines described in the Clinical and Laboratory Standards Institute (CLSI) document M27-S4. […] Stock solutions of the drugs were kept at −86° C.

[4] = test system: Candida albicans (Strain R303); assay: MIC of dose-fractionation strain
[5] = Pharmacokinetic-pharmacodynamic analyses, PK model free-drug plasma exposures; set-up: species or system mouse
Description: Pharmacokinetic-Pharmacodynamic Analyses. Using the data collected from the PK study, a PK model was developed in S-ADAPT. Using the developed PK model, concentration-time profiles and AUC0-168h values were computed for each dosing regimen administered in the dose-fractionation study. […] Relationships between the change in logio CFU from start of therapy and AUC0-168h were explored.

C. glabrata [6] = assay: Mutant prevention concentration (MPC) determination; type: cell-based, Candida glabrata; details: wild-type isolates; 24 hr, ~1×10^7 CFU/mL
C. albicans = assay: Antifungal susceptibility testing (CLSI M27-S4), WT and echinocandin-resistant isolates; details: for % of ER isolates with an MIC of ≤0.5 mg/L: C. albicans ER isolates; for MIC median (range): 24 hr
Description: as §1

[7] = molecular target: 1,3-β-D-glucan synthase from C. albicans (Candida albicans, UniProt O13428, F641S); assay: Glucan synthase (GS) inhibition assay; details: IC50, DPL18; Fks1 F641S
C. glabrata [8] = assay: Antifungal susceptibility testing (CLSI M27-S4), WT and echinocandin-resistant isolates; details: for % of ER isolates with an MIC: C. glabrata ER isolates (n=11); for MIC median (range): 24 hr
Description: as §1

[9] = test system: azole-resistant Candida albicans (R357); assay: Disseminated infection model in neutropenic ICR mice, kidney fungal counts (Example 10, Tables 22-23); type: in vivo; details: for antimicrobial effect versus vehicle (one-way ANOVA, Dunnett's test): 48 and 72 hr after infection, Compound 1 3, 10, 30 mg/kg IP, amphotericin B 1 and 3 mg/kg IV, fluconazole 20 mg/kg PO; for reduction in colony counts compared to the vehicle control group: kidney, 20 mg/kg PO once
C. albicans ATCC 44858 = assay: MIC against C. albicans ATCC 44858 at pH 4; type: cell-based; details: Candida albicans, ATCC44858, pH 4
[10] = Solubility of test articles in vehicle, visual observation (Table 22); type: physicochemical; details: visual observation
Description: Test Articles. […] Amphotericin B and fluconazole were in powder form. Amphotericin B was dissolved in 0.9% NaCl. Fluconazole was dissolved in water (WFI: water for injection).

[11] = Modeling of total plasma concentrations versus MPC; details: IV administration of 50 mg; calculated by modeling of pharmacokinetic data
[12] = Phase 1 dose-escalation trials, pharmacokinetics after IV infusion; type: in vivo, human
Description: PK was assessed using plasma and urine samples collected over 21 days. Safety and tolerability were assessed by adverse events (AEs), vital signs, physical exams, electrocardiograms (ECGs), and safety laboratory values up to 21 days after dosing.

[13] = Pharmacokinetic study in healthy ICR mice, single IP dose; details: 1 to 16 mg/kg IP
Description: Pharmacokinetic Study. […] The following doses, at three mice per dose, were studied: 1, 4, and 16 mg/kg.

[14] = test system: C. albicans ATCC 44858, DPL001, R357; assay: Time-kill assay in vagina-simulative medium pH 4.0 (Table 16); type: cell-based, Candida albicans
[15] = test system: C. tropicalis CTO2, MMX 7255, MMX 7525; assay: Time-kill assay in vagina-simulative medium pH 4.0 (Table 18); type: cell-based, Candida tropicalis
[16] = test system: C. glabrata CG01, ATCC 200918, MMX 7070; assay: Time-kill assay in vagina-simulative medium pH 4.0 (Table 17); type: cell-based, Candida glabrata
[17] = test system: C. parapsilosis CP02, CP01, MMX 7370; assay: Time-kill assay in vagina-simulative medium pH 4.0 (Table 19); type: cell-based, Candida parapsilosis
[18] = test system: 1,3-β-D-glucan synthase from C. albicans; assay: Glucan synthase (GS) inhibition assay
[19] = ATCC90028, ATCC 90028, Fks1p WT, Fks2p WT
[20] = ATCC90028, DPL22, Fks1p S645P/S
[21] = IV infusion, healthy human subjects

Sequence of 1,3-β-D-glucan synthase from C. albicans (Candida albicans, UniProt O13428, F641S) (O13428 entry or part of it F641S): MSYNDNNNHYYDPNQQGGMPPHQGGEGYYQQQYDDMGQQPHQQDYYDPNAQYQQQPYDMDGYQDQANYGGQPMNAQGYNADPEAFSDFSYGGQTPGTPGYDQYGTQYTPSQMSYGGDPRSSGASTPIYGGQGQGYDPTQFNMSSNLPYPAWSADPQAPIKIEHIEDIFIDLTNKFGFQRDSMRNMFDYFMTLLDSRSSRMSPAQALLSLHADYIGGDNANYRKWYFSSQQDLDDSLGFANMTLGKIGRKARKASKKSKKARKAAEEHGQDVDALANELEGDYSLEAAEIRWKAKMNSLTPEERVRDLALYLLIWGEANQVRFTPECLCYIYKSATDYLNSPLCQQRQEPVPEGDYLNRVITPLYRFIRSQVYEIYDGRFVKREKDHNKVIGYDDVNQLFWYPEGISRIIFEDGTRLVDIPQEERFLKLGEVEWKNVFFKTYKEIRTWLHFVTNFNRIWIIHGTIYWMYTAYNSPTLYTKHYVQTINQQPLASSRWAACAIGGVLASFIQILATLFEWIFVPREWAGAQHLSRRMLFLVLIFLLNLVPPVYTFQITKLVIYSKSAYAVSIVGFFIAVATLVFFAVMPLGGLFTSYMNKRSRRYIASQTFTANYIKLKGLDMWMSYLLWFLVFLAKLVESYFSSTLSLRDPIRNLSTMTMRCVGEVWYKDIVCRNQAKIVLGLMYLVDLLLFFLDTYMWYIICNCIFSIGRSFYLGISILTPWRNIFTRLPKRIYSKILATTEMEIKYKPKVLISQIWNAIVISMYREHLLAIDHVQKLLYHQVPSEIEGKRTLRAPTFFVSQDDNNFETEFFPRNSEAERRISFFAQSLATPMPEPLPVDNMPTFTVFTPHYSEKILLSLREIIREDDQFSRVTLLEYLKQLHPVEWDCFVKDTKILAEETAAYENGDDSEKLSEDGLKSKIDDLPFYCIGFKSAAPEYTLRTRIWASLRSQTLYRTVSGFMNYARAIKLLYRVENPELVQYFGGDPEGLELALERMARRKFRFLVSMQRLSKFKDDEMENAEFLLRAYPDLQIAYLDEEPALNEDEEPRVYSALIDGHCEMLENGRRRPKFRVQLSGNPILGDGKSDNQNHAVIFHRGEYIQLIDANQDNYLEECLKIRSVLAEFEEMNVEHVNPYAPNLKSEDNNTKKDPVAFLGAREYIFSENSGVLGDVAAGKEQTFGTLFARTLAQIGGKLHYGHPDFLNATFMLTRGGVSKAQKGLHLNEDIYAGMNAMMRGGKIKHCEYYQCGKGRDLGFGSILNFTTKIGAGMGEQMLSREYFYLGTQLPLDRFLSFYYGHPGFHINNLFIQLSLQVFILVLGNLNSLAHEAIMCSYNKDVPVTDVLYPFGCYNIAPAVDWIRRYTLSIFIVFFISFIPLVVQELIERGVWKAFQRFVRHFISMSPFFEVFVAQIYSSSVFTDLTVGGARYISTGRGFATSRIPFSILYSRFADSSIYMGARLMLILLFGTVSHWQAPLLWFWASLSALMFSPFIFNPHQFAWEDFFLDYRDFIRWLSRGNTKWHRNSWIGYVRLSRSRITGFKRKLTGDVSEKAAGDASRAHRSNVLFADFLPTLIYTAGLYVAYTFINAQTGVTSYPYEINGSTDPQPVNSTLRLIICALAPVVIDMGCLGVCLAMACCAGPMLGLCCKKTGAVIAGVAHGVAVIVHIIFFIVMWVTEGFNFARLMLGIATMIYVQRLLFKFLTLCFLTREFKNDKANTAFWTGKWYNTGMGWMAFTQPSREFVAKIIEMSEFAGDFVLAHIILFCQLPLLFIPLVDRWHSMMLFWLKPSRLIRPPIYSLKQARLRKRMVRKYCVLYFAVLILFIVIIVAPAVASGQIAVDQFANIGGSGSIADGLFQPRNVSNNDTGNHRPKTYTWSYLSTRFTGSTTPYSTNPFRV

Compound: CCCCCOc1ccc(-c2ccc(-c3ccc(C(=O)N[C@H]4C[C@@H](O)[C@@H](O)NC(=O)[C@@H]5[C@@H](O)[C@@H](C)CN5C(=O)[C@H]([C@@H](C)O)NC(=O)[C@H]([C@H](O)[C@@H](O)c5ccc(O)cc5)NC(=O)[C@@H]5C[C@@H](O)CN5C(=O)[C@H]([C@@H](C)O)NC4=O)cc3)cc2)cc1 [ANID, anidulafungin] ({pTerphenylCO(4''-OnC5H11)}-[Orn(4R-OH,5R-OH)]T[Hyp][hTyr(3S-OH,4S-OH)]T[Pro(3S-OH,4S-Me)]; lactam 1-C)
- MIC (C. parapsilosis CP02): 4 µg/mL (≈ 3.51 µM)

Compound: CC[C@H](C)C[C@H](C)CCCCCCCCC(=O)N[C@H]1C[C@@H](O)[C@@H](NCCN)NC(=O)[C@@H]2[C@@H](O)CCN2C(=O)[C@H]([C@H](O)CCN)NC(=O)[C@H]([C@H](O)[C@@H](O)c2ccc(O)cc2)NC(=O)[C@@H]2C[C@@H](O)CN2C(=O)[C@H]([C@@H](C)O)NC1=O [CAS, caspofungin]
- MIC (C. parapsilosis CP02): 0.5 µg/mL (≈ 0.457 µM)

Compound: CCCCCOc1ccc(-c2ccc(-c3ccc(C(=O)N[C@H]4C[C@@H](O)[C@@H](OCC[N+](C)(C)C)NC(=O)[C@@H]5[C@@H](O)[C@@H](C)CN5C(=O)[C@H]([C@@H](C)O)NC(=O)[C@H]([C@H](O)[C@@H](O)c5ccc(O)cc5)NC(=O)[C@@H]5C[C@@H](O)CN5C(=O)[C@H]([C@@H](C)O)NC4=O)cc3)cc2)cc1 [Compound 1] ({pTerphenylCO(4''-OnC5H11)}-[Orn(4R-OH,5R-OCH2CH2NMe3+)]T[Hyp][hTyr(3S-OH,4S-OH)]T[Pro(3S-OH,4S-Me)]; lactam 1-C)
- MIC [1, 19]: < 0.03 µg/mL
- MIC [1, 20]: 0.5 µg/mL
- log10 CFU reduction from baseline [2]: greater than 2 log10 CFU
- fraction unbound (Murine protein binding): 0.009
- survival versus vehicle [3]: significantly longer survival than vehicle
- MIC median (range) (C. krusei; ER (4 isolates)): 0.50 (<0.03-4) mg/L
- MIC median (range) (C. krusei; WT (11 isolates)): 0.03 (<0.03-0.06) mg/L
- MIC [4]: 0.125 µg/mL
- Free-drug plasma AUC0-24 ([5]; 2 mg/kg as a single dose): 65.4 ng·h/mL
- time free-drug plasma concentrations of single dose remain above those of the daily regimen ([5]; 2 mg/kg total dose): 48 h
- time free-drug plasma concentrations of single dose remain above those of the twice weekly regimen ([5]; 2 mg/kg total dose): 84 h
- Free-drug plasma AUC0-24 ([5]; 2 mg/kg total, daily regimen): 9.48 ng·h/mL
- Free-drug plasma AUC0-24 ([5]; 2 mg/kg total, twice weekly regimen): 30.3 ng·h/mL
- MPC (C. glabrata [6]): 16 µg/mL
- % of ER isolates with an MIC of ≤0.5 mg/L (C. albicans): 60%
- MIC median (range) (C. albicans; ER (10 isolates)): 0.50 (0.06-2) mg/L
- MIC median (range) (C. albicans; WT (10 isolates)): <0.03 (<0.03)^ mg/L
- IC50 [7]: 283 nM
- % of ER isolates with an MIC (C. glabrata [8]): 18%
- MIC median (range) (C. glabrata [8]; ER (11 isolates)): 1.00 (0.12-4) mg/L
- MIC median (range) (C. glabrata [8]; WT (9 isolates)): 0.06 (0.03-0.12) mg/L
- reduction in fungal counts ([9]; 3, 10, and 30 mg/kg IP once, 48 and 72 hr time points): two log reduction
- antimicrobial effect versus vehicle (one-way ANOVA, Dunnett's test) [9]: Significant antimicrobial effects
- MIC (C. albicans ATCC 44858): 0.25 µg/mL
- Solubility ([10]; vehicle 10% DMSO/1% Tween 20 in 0.9% NaCl, formulation 0.3, 1 and 3 mg/mL): S
- total plasma concentration generated [11]: > 16 µg/mL
- plasma exposures versus dose ([12]; 50-400 mg IV): dose-proportional plasma exposures
- apparent clearance [12, 21]: < 0.3 L/h
- urinary excretion [12, 21]: < 1%
- half-life ([12]; plasma, IV infusion, healthy human subjects, read-out: half-life (t1/2)): > 80 h
- PK linearity over the dose range [13]: linear PK

Compound: OC(Cn1cncn1)(Cn1cncn1)c1ccc(F)cc1F [FLU, fluconazole]
- Susceptibility to FLU (S/R) ([14]; C. albicans ATCC 44858): S
- Susceptibility to FLU (S/R) ([14]; C. albicans DPL001): R
- Susceptibility to FLU (S/R) ([14]; C. albicans R357): R
- Susceptibility to FLU (S/R) ([15]; C. tropicalis CT02): S
- Susceptibility to FLU (S/R) ([15]; C. tropicalis MMX 7255): R
- Susceptibility to FLU (S/R) ([15]; C. tropicalis MMX 7525): R
- antimicrobial effect versus vehicle (one-way ANOVA, Dunnett's test) [9]: not significant
- reduction in colony counts compared to the vehicle control group ([9]; 48 hr after infection): 51%
- reduction in colony counts compared to the vehicle control group ([9]; 72 hr after infection): 84%
- Susceptibility to FLU (S/R) ([16]; C. glabrata ATCC 200918): R
- Susceptibility to FLU (S/R) ([16]; C. glabrata CG01): S
- Susceptibility to FLU (S/R) ([16]; C. glabrata MMX 7070): R
- Susceptibility to FLU (S/R) ([17]; C. parapsilosis CP01): R
- Susceptibility to FLU (S/R) ([17]; C. parapsilosis CP02): S
- Susceptibility to FLU (S/R) ([17]; C. parapsilosis MMX 7370): R
- Solubility ([10]; vehicle WFI, formulation 2 mg/mL): S

Compound: CCCCCOc1ccc(-c2cc(-c3ccc(C(=O)N[C@H]4C[C@@H](O)[C@@H](O)NC(=O)[C@@H]5[C@@H](O)[C@@H](C)CN5C(=O)[C@H]([C@H](O)CC(N)=O)NC(=O)[C@H]([C@H](O)[C@@H](O)c5ccc(O)c(OS(=O)(=O)O)c5)NC(=O)[C@@H]5C[C@@H](O)CN5C(=O)[C@H]([C@@H](C)O)NC4=O)cc3)no2)cc1 [MCF, micafungin] (X1-[Orn(4R-OH,5R-OH)]T[Hyp][hTyr(3S-OH,4S-OH,3'-OSO3H)][Gln(3R-OH)][Pro(3S-OH,4S-Me)]; lactam 1-C)
- MIC [1, 19]: < 0.03 µg/mL
- MIC [1, 20]: 0.5 µg/mL
- MIC median (range) (C. krusei; ER (4 isolates)): 1.00 (0.03-8) mg/L
- MIC median (range) (C. krusei; WT (11 isolates)): 0.12 (0.03-0.25) mg/L
- MPC (C. glabrata [6]): 16 µg/mL
- % of ER isolates with an MIC of ≤0.5 mg/L (C. albicans): 40%
- MIC median (range) (C. albicans; ER (10 isolates)): 0.50 (0.03-4) mg/L
- MIC median (range) (C. albicans; WT (10 isolates)): <0.03 (<0.03)^ mg/L
- fold increase in IC50 compared to the WT ([18]; F641S mutant): 100 fold
- fold increase in IC50 compared to the WT ([18]; S645P mutant): 144 fold
- IC50 [7]: 1400 nM
- % of ER isolates with an MIC (C. glabrata [8]): 63%
- MIC median (range) (C. glabrata [8]; ER (11 isolates)): 0.50 (0.06-4) mg/L
- MIC median (range) (C. glabrata [8]; WT (9 isolates)): <0.03 (<0.03)^ mg/L

Source: patent US20180256673A1, “METHODS FOR TREATING FUNGAL INFECTIONS” (priority 2015, published 2018)
